These results are taken from patent US8481051B2, “Cytotoxic T-cell epitope peptides that specifically attack epstein-barr virus-infected cells and uses thereof” (Medical and Biological Laboratories Co., Ltd., priority 2005, dated 2013).

Common to all, as to type: cell-based, human
In test [1] the test system is LMP1-specific CTL clone H7. Nature of the test: IFNγ ELISPOT assay, CTL clone H7 with peptide-pulsed A0206-293T cells. Conditions: for recognition by H7 in ELISPOT assay: A0206-293T cells pulsed with various concentrations of synthetic peptide, FIG. 2D. How it is done:
ELISPOT assays were performed by known methods (Kuzushima K., et al., Blood, 94:3094-3100 (1999); Kondo E., et al., J. Immunol., 169:2164-2171 (2002); and Kuzushima K., et al., Blood, 98:1872-1881 (2001)). Specifically, CD8 T cells were co-cultured with various stimulators in wells of Multiscreen-HA plates (MAHA S4510; Millipore, Billerica, Mass., USA) coated with anti-human interferon-γ (IFNγ) monoclonal antibody (Pierce Biotechnology, Philadelphia, Pa., USA).
As stimulators, HLA-A*0206-positive or -negative LCLs (1×10^5 cells/well) or HLA-A*0206-expressing HEK-293T (A0206-293T) cells (5×10^4 cells/well) transfected with plasmids using Lipofectamin 2000 (Invitrogen) were seeded into each well 48 hour before T cell addition. For peptide titration assays, several concentrations of synthetic peptides (Greiner, Frickenhausen, Germany) were pulsed to A0206-293T cells for one hour at room temperature. After probing with […] (Pierce Biotechnology) and reacting with peroxidase-labeled anti-rabbit IgG antibody (Genzyme, Cambridge, Mass., USA) for spot visualization, the plates were washed and dried. IFNγ spots were enumerated using a stereoscopic microscope.

The next test relates to SNK-6 cells. In words: CTL assay (51Cr release) against SNK-6. Particulars: SNK-6 pulsed with 100 nM epitope peptide; four-hour CTL assay; FIG. 5A. How it is done: Next, cytotoxic activities of H7 on LCLs were explored. CTL assays were conducted according to the following procedures. Target cells were labeled with 50 μCi chromium (^51Cr) for one and a half hours at 37° C., washed, and mixed with CTLs at the indicated effector:target ratios in 96-well plates. After incubation for 4 or 16 hours at 37° C., the radioactivity in the supernatants was counted with a γ-counter. The percentage of specific ^51Cr release was calculated as follows: 100×{(experimental release)−(spontaneous release)}/{(maximum release)−([…])}.

Test [2] relates to EBNA1-specific CTL clone B5. In words: IFNγ ELISPOT assay, CTL clone B5 with peptide-pulsed autologous CD40-B cells. Particulars: for recognition of 20-mer overlapping peptide by clone B5: autologous CD40-B cells pulsed with 10 μg/mL peptide, FIG. 9. How it is done:
(§1) ELISPOT assays were performed by a known method (Kuzushima K., et al., Blood, 101:1460-1468 (2003)). Specifically, CD8 T cells were co-cultured with various stimulators in wells of Multiscreen-HA plates (Millipore, Billerica, Mass.) coated with anti-human interferon-γ (IFNγ) monoclonal antibody (Pierce Biotechnology, Philadelphia, Pa.). As stimulators, (A) autologous EBNA1 mRNA-transduced CD40-B cells or non-transduced CD40-B cells and (B) autologous or allogenic LCLs (1×10^5 cells/well) were seeded into each well. For peptide titration assays and the overlapping peptide assay described below, serial concentrations of synthetic peptides were added to autologous CD40-B cells for one hour at room temperature.
(§2) After reacting with anti-human IFNγ rabbit polyclonal antibody (Pierce Biotechnology), followed by addition of peroxidase-labeled anti-rabbit immunoglobulin antibody (Genzyme, Cambridge, Mass.) and substrate, the plates were washed and dried. IFNγ spots were enumerated under a stereoscopic microscope.

Test [3] relates to EBNA1-specific CTL clone C6. Nature of the test: IFNγ ELISPOT assay, CTL clone C6 with peptide-pulsed autologous CD40-B cells. Conditions: autologous CD40-B cells pulsed with 10 μg/mL peptide; FIG. 9. The method, then:
as §1, §2

“YLLEMLWRL [SEQ ID NO: 25, reference compound]”: in test [1] (data not shown), the “IFNγ production by H7 with the peptide” value is given as “did not produce IFNγ”. On to “I I I I L I I F I (IIIILIIFI) [SEQ ID NO: 1]”, for which the “lysis of epitope peptide-pulsed SNK-6 cells by H7” value in the test with SNK-6 cells is listed as “efficiently lysed”. For the same substance, the “recognition by H7 in ELISPOT assay” value in test [1] is on record as “recognized by H7”. For the substance “#38: 20-mer overlapping EBNA1 peptide (500-519)”, the “recognition of 20-mer overlapping peptide by clone B5” value in test [2] is on record as “recognized”. Take “#24: 20-mer overlapping EBNA1 peptide (402-421)”: the “recognition of 20-mer overlapping peptide by clone C6” value in test [3] was “recognized”. For the substance “I I I L I I F I (IIILIIF) [SEQ ID NO: 18, LMP1 amino acid residues 64-71]”, the “recognition by H7 in ELISPOT assay” value in test [1] was “only the 9-mer peptide was recognized by H7”. Take VYGGSKTSL [SEQ ID NO: 22]: in test [2] (autologous CD40-B cells, serial dilutions of peptide, FIG. 10C), the “recognition by clone B5 in peptide titration” value is reported as “not recognized even with much higher concentrations”. In the case of “#39: 20-mer overlapping EBNA1 peptide (507-526)”, the “recognition of 20-mer overlapping peptide by clone B5” value in test [2] is “recognized”.
